According to patent US5594009A, “Fused pyrrolocarbazoles” (priority 1995, dated 1997):

system: choline acetyltransferase (ChAT) activity in dissociated rat embryonic spinal cord culture; test: Spinal Cord ChAT Activity Assay; assay type: cell-based; conditions: ChAT measured after 48 hours
Experimental: In these assays, a fused pyrrolocarbazole was directly added to a dissociated spinal cord culture. […] The fused pyrrolocarbazole was added on the same day the dissociated spinal cord cell culture was initiated.
Methods: Fetal rat spinal cord cells were dissociated, and experiments were performed as described (Smith et al., J. Cell Biology., 101:1608-1621 (1985); Glicksman et al., J. Neurochem. 61:210-221 (1993)). Dissociated cells were prepared from spinal cords dissected from rats (embryonic day 14-15) by standard trypsin dissociation techniques (Smith et al., J. Cell Biology 10:1608-1621 (1985)). Cells were plated at 6×10^5 cells/cm^2 on poly-1-ornithine coated plastic tissue culture wells in serum-free N2 medium supplemented with 0.05% bovine serum albumin (BSA) (Bottenstein et al., PNAS USA 514-517 (1979)). Cultures were incubated at 37° C. in a humidified atmosphere of 5% CO2 /95% air for 48 hours. ChAT activity was measured after 2 days it vitro using a modification of the Fonnum procedure (Fonnum, J. Neurochem. 24:407-409 (1975)) according to McManaman et al. and Glicksman et al. (McManaman et al., Developmental Biology 125:311-320 (1988); Glicksman et al., J. Neurochem. 61:210-221 (1993)).

| Compound | Spinal Cord ChAT Activity, % of Control, untreated cultures |
| --- | --- |
| COc1ccc2[nH]c3c4c(c5c(c3c2c1)CNC5=O)-c1ccccc1C4 [Compound I-13, 3-Methoxy-5H, 6H, 12H, 13H-Indeno[2,3-a]pyrrolo[3,4-c]carbazole-7(7H)one] | 217 % of Control |
| O=C1NCc2c1c1c(c3[nH]c4ccc(C=CN5C(=O)c6ccccc6C5=O)cc4c23)Cc2ccccc2-1 [Compound I-39, 3-(2-(2-Phthalimido)ethenyl)-5H,6H,12H,13H-indeno[2,3-a]pyrrolo[3,4-c]carbazole-7(7H)-one] | 268 % of Control |
| O=C1NCc2c3c(c4[nH]c5ccc(Br)cc5c4c21)CCc1ccccc1-3 [Compound I-18, 3-Bromo-12,13-dihydro-6H, 7H, 14H-naphthyl[3,4-a]pyrrolo[3,4-c]carbazole-5(5H)one] | 133 % of Control |
| O=C1NC(=O)c2c1c1c(c3[nH]c4ccccc4c23)CCc2cc(C=Cc3ccccn3)ccc2-1 [Compound Ia-6] | 139 % of Control |
| Cn1c2ccccc2c2c3c(c4c(c21)Cc1ccccc1-4)C(=O)NC3=O [Compound I-4, 13-Methyl-6H, 12H-indeno[2,3-a]pyrrolo[3,4-c]carbazole-5,7(5H, 7H)-dione] | 124 % of Control |
| O=c1[nH]c(=O)c2c1c1c3ccccc3[nH]c1c1c(=O)c3ccccc3c12 [Compound I-28, 12-Oxo-6H,13H-indeno[2,3-a]pyrrolo[3,4-c]carbazole-5,7(5H,7H)dione] | < 120 % of Control |
| O=C1NC(=O)c2c1c1c(c3[nH]c4ccccc4c23)Cc2cc(Br)ccc2-1 [Compound Ia-3, 10-bromo-6H, 12H, 13H-indeno[2,3-a]pyrrolo[3,4-c]carbazole-5,7(5H, 7H)dione] | 138 % of Control |
| O=C1NCc2c1c1c3ccccc3[nH]c1c1sc3ccccc3c21 [Compound I-42, 6H, 7H, 12H-Benzo[b]thieno[2,3-a]pyrrolo[3,4-c]carbazole-5(5H)one] | 177 % of Control |
| O=C1NC(O)c2c1c1c3ccccc3ccc1c1[nH]c3ccccc3c21 (stereo not drawn) [Compound I-38, 5-Hydroxy-12,13-dihydro-6H, 14H-naphthyl[3,4-a]pyrrolo[3,4-c]carbazole-7(7H)one] | 208 % of Control |
| O=C1NCc2c1c1c(c3[nH]c4ccc(Br)cc4c23)CCc2ccccc2-1 [Compound I-19, 3-Bromo-12,13-Dihydro-5H, 6H, 14H-naphthyl[3,4-a]pyrrolo[3,4-c]carbazole-7(7H)one] | 203 % of Control |
| O=C1NCc2c1c1c(c3[nH]c4ccc(-c5ccccc5)cc4c23)Cc2ccccc2-1 [Compound I-27, 3-Phenyl-5H,6H,12H,13H-indeno[2,3-a]pyrrolo[3,4-c]carbazole-7(7H)one] | 120 % of Control |
| O=C1NC(=O)c2c1c1c(c3[nH]c4ccccc4c23)CCc2cc(F)ccc2-1 [Compound Ia-4, 10-Fluoro-12,13-dihydro-6H, 14H-naphthyl[3,4-a]pyrrolo[3,4-c]carbazole-5,7(5H, 7H)dione] | < 120 % of Control |
| Cc1cccc2c1[nH]c1c3c(c4c(c12)C(=O)NC4=O)-c1ccccc1C3 [Compound Ib-1, 1-Methyl-12H, 13H-indeno[2,3-a]pyrrolo[3,4-c]carbazole-6H-5,7(5H, 7H)-dione] | 138 % of Control |
| CCOC(=O)C=Cc1ccc2[nH]c3c4c(c5c(c3c2c1)CNC5=O)-c1ccccc1C4 [Compound I-25, 3-(3-Ethyl propenoate)-5H,6H,12H,13H-indeno[2,3-a]pyrrolo[3,4-c]carbazole-7(7H)one] | 168 % of Control |
| O=C1NCc2c1c1c(c3[nH]c4ccc(C=Cc5ccncc5)cc4c23)Cc2ccccc2-1 [Compound I-33, 3-(2-(4-Pyridyl)ethenyl)-5H,6H,12H,13H-indeno[2,3-a]pyrrolo[3,4-c]carbazole-7(7H)-one] | 144 % of Control |
| O=C1NCc2c1c1c3ccccc3sc1c1[nH]c3ccccc3c21 [Compound I-43, 6H, 7H, 12H-Benzo[b]thieno[2,3-a]pyrrolo[3,4-c]carbazole-7(7H)one] | 138 % of Control |
| CCCCCc1ccc2[nH]c3c4c(c5c(c3c2c1)C(=O)NC5=O)-c1ccccc1C4 [Compound I-37, 3-Pentyl-6H,12H,13H-indeno[2,3-a]pyrrolo[3,4-c]carbazole-5,7(5H,7H)dione] | < 120 % of Control |
| N#CC=Cc1ccc2[nH]c3c4c(c5c(c3c2c1)CNC5=O)-c1ccccc1C4 [Compound I-35, 3-(2-Cyanoethenyl)-5H,6H,12H,13H-indeno[2,3-a]pyrrolo[3,4-c]carbazole-7(7H)one] | 121 % of Control |
| O=C1NCc2c3c(c4[nH]c5ccc(C=Cc6ccccn6)cc5c4c21)Cc1ccccc1-3 [Compound I-41, 3-(2-(2-Pyridylethenyl))-6H,7H,12H,13H-indeno[2,3-a]pyrrolo[3,4-c]carbazole-5(5H)-one] | 122 % of Control |
| 3-Fluoro6H, 7H, 12H, 13H-indeno[2,3-a]pyrrolo[3,4-c]carbazole-5(5H)one and 3-fluoro-5H, 6H, 12H, 13H-indeno[2,3-a]pyrrolo[3,4-c]carbazole-7((7H)one [Compound I-8] | 200 % of Control |
| C#Cc1ccc2[nH]c3c4c(c5c(c3c2c1)CNC5=O)-c1ccccc1C4 [Compound I-36, 3-Ethynyl-5H,6H,12H,13H-indeno[2,3-a]pyrrolo[3,4-c]carbazole-7(7H)one] | 167 % of Control |
| O=C1NC(=O)c2c1c1c(c3[nH]c4ccccc4c23)Cc2ccc(Br)cc2-1 [Compound Ib-2] | 153 % of Control |
| O=C1NC(=O)c2c1c1c(c3[nH]c4ccccc4c23)CCc2cc(CCc3ccccn3)ccc2-1 [Compound Ia-7] | < 120 % of Control |
| O=C1NCc2c1c1c(c3[nH]c4ccc(I)cc4c23)Cc2ccccc2-1 [Compound I-40, 3-Iodo-5H, 6H, 12H, 13H-indeno[2,3-a]pyrrolo[3,4-c]carbazole-7(7H)-one] | 150 % of Control |
| O=C1NC(=O)c2c1c1c(c3[nH]c4ccccc4c23)CCc2cc(Br)ccc2-1 [Compound Ia-5, 10-Bromo-12,13-dihydro-6H, 14H-naphthyl[3,4,-a]pyrrolo[3,4-c]carbazole-5,7(5H, 7H)dione] | 132 % of Control |
| O=C1NCc2c1c1c(c3[nH]c4ccc(C=CI)cc4c23)Cc2ccccc2-1 [Compound I-44] | 127 % of Control |
| 2-Chloro-6H, 7H, 12H, 13H-indeno[2,3-a]pyrrolo[3,4-c]carbazole-5(5H)one and 2-chloro-5H, 6H, 12H, 13H-indeno[2,3-a]pyrrolo[3,4-c]carbazole-7(7H)one [Compound Ia-2] | 161 % of Control |
| O=C1NC(=O)c2c1c1c(c3[nH]c4ccc(Cl)cc4c23)Cc2ccccc2-1 [Compound I-10, 3-Chloro-6H , 12H, 13H-indeno[2,3-a]pyrrolo[3,4-c]carbazole-5,7(5H, 7H)-dione] | 189 % of Control |
| mixture of 13-Methyl-6H, 7H, 12H-indeno[2,3-a]pyrrolo[3,4-c]carbazole-5(5H)one and 13-methyl-5H, 6H, 12H-indeno[2,3-a]pyrrolo[3,4,-c]carbazole-7(7H)one [Compound I-5] | 137 % of Control |

system: ChAT activity of basal forebrain cultures; test: Basal Forebrain ChAT Activity Assay; assay type: cell-based, rat; conditions: 1000 nM
Experimental: Fused pyrrolocarbazoles were tested for the ability to increase ChAT activity of basal forebrain cultures.
Methods: The basal forebrain was dissected from rat embryos (day 17 or 18 embryos) and the cells were dissociated with a neutral protease (Dispase™, Collaborative Research). Neurons were plated at a density of 5×10^4 cells/well (1.5×10^5 cells/cm^2) in poly-1-ornithine and laminin coated plates. Cells were cultured in serum-free N2 medium containing 0.05% BSA at 37° C. in a humidified atmosphere, 5% CO2 /95% air. ChAT activity was assessed 5 days after plating by using the ChAT assay as described in Example III(A)(1).

| Compound | ChAT Activity (% of Control) |
| --- | --- |
| C#Cc1ccc2[nH]c3c4c(c5c(c3c2c1)CNC5=O)-c1ccccc1C4 [Compound I-36, 3-Ethynyl-5H,6H,12H,13H-indeno[2,3-a]pyrrolo[3,4-c]carbazole-7(7H)one] | inactive |

same assay, conditions: Rattus norvegicus, 120 h; 100 nM; read-out: ChAT Activity (% of Control)

| Compound | activity at 0.1 µM [%] |
| --- | --- |
| C#Cc1ccc2[nH]c3c4c(c5c(c3c2c1)CNC5=O)-c1ccccc1C4 [Compound I-36, 3-Ethynyl-5H,6H,12H,13H-indeno[2,3-a]pyrrolo[3,4-c]carbazole-7(7H)one] | 122 |

same assay, conditions: Rattus norvegicus, 120 h; 250 nM; read-out: ChAT Activity (% of Control)

| Compound | activity at 0.25 µM [%] |
| --- | --- |
| C#Cc1ccc2[nH]c3c4c(c5c(c3c2c1)CNC5=O)-c1ccccc1C4 [Compound I-36, 3-Ethynyl-5H,6H,12H,13H-indeno[2,3-a]pyrrolo[3,4-c]carbazole-7(7H)one] | 131 |

same assay, conditions: Rattus norvegicus, 120 h; 500 nM; read-out: ChAT Activity (% of Control)

| Compound | activity at 0.5 µM [%] |
| --- | --- |
| C#Cc1ccc2[nH]c3c4c(c5c(c3c2c1)CNC5=O)-c1ccccc1C4 [Compound I-36, 3-Ethynyl-5H,6H,12H,13H-indeno[2,3-a]pyrrolo[3,4-c]carbazole-7(7H)one] | 123 |
